{
  "source": "patent US20250213588A1",
  "about": "“STERILIZATION METHOD OF PHARMACEUTICAL PREPARATION AND PACKAGING” (SANTEN PHARMACEUTICAL CO., LTD., priority 2022, published 2025)",
  "type_in_all_cases": "physicochemical",
  "key": {"[1]": {"assay": "Absorption wavelength measurement test (UV-visible spectrophotometer)", "conditions": "0.0025% AFDX0250 solution in acetonitrile", "procedure": "The absorption wavelength of AFDX0250 was measured.\nAFDX0250 (10 mg) was dissolved in acetonitrile, and the solution was adjusted exactly to 100 mL to prepare 0.01% AFDX0250 solution. The solution was diluted 4-fold to prepare 0.0025% AFDX0250 solution. The prepared 0.0025% AFDX0250 solution was used as a test preparation.\nThe absorption spectrum of the prepared test preparation was measured using ultraviolet visible spectrophotometer."}, "[2]": {"assay": "Photostability test (1): irradiation at specific wavelengths", "conditions": "Preparations 1 and 2; irradiated for 24 hours with multi-wavelength irradiation spectrometer; HPLC (FIG. 2)", "procedure": "The stability of the aqueous pharmaceutical composition comprising AFDX0250 or a salt thereof under light irradiation was studied.\nPreparation 1 with the composition shown in the above Table 1 and Preparation 2 with the composition shown in Table 4 were prepared in usual manners. The prepared preparations were used as test preparations.\nThe prepared test preparations were irradiated at specific wavelengths using multi-wavelength irradiation spectrometer for 24 hours, and the amount of AFDX0250 in each test preparation at each irradiation wavelength after the irradiation was quantified by high performance liquid chromatography to calculate the residual ratio of AFDX0250 (%). The residual ratio of AFDX0250 (%) represents the ratio of AFDX0250 (%) after irradiation when the amount of AFDX0250 in the test formulation is 100%."}, "[3]": {"assay": "Stability evaluation test after sterilization treatment", "conditions": "for Hydrolysate (%): Example 6 test preparation; for Residual ratio (%): Example 6 test preparation (0.25 g AFDX0250 in 50 mL, citrate buffer, sodium chloride)", "procedure": "An aqueous pharmaceutical composition comprising AFDX0250 or a salt thereof was sterilized to evaluate the stability of AFDX0250 in a preparation.\nSodium citrate hydrate (2.5 g) was dissolved in purified water and the solution was adjusted exactly to 100 mL to prepare 2.5% sodium citrate hydrate solution. Citric acid hydrate (0.2 g) was dissolved in purified water and the solution was adjusted exactly to 100 mL to prepare 0.2% citric acid hydrate solution. Sodium chloride (5 g) was dissolved in purified water and the solution was adjusted exactly to 50 mL to prepare 10% sodium chloride solution. 0.25 g of AFDX0250 was weighed, the weighed AFDX0250 was mixed with 10 mL each of 2.5% sodium citrate hydrate solution, 0.2% citric acid hydrate solution and 10% sodium chloride solution, and then the solution was adjusted exactly to 50 mL with purified water to prepare a test preparation.\nThe prepared test preparation was subjected to gamma radiation sterilization, sterilization by filtration using a filter or autoclaved (AC) sterilization to prepare a sterile formulation. The amount of AFDX0250 after each sterilization treatment was quantified by high performance liquid chromatography to calculate the residual ratio of AFDX0250 (%). The residual ratio of AFDX0250 (%) represents the ratio of AFDX0250 (%) after sterilization treatment when the amount of AFDX0250 in the test preparation is 100%. In addition, the amount of AFDX0250-derived hydrolysate (5,11-dihydro-6H-pyrido[2,3-b][1,4]benzodiazepin-6-one) in each test preparation excluding the test preparation subjected to gamma radiation sterilization was quantified by high performance liquid chromatography."}, "[4]": {"conditions": "after AC (autoclaved) sterilization"}, "[5]": {"conditions": "after sterilization by filtration using a filter"}},
  "note": "“Also recorded” adds a separate entry of the source.",
  "data": [
    {"molecule": "CCN(CC)C[C@H]1CCCCN1CC(=O)N1c2ccccc2C(=O)Nc2cccnc21", "note": "[AFDX0250, (R)-11-[2-[2-[(diethylamino)methyl]-1-piperidinyl]acetyl]-5,11-dihydro-6H-pyrido[2,3-b][1,4]benzodiazepin-6-one]", "values": [
      {"measurement": "absorption spectrum of AFDX0250", "setting": "[1]", "value": "no absorption of AFDX0250 was observed at the longer wavelengths than about 330 nm"},
      {"measurement": "degradation of AFDX0250 under irradiation at specific wavelengths", "setting": "[2]", "value": "degraded at a wavelength of from 216 to 310 nm and 372 nm; also recorded: particularly degraded at a wavelength of 370 nm"},
      {"measurement": "Hydrolysate (%)", "setting": "[3]; [4]", "value": 0.37, "unit": "%"},
      {"measurement": "Residual ratio (%)", "setting": "[3]; [4]", "value": 93.8, "unit": "%"},
      {"measurement": "Residual ratio (%)", "setting": "[3]; after gamma radiation sterilization", "value": 55.7, "unit": "%"},
      {"measurement": "Hydrolysate (%)", "setting": "[3]; [5]", "value": 0.06, "unit": "%"},
      {"measurement": "Residual ratio (%)", "setting": "[3]; [5]", "value": 100.3, "unit": "%"}
    ]}
  ]
}
